ChEMBL document CHEMBL4513161, “CO-ADD screening of MMV (CH) - Pandemic Response Box” (2021)
In brackets after ≈: the same amount, converted by molar mass.

Legend:
Pseudomonas aeruginosa [1] = experiment: microbe, parasite or virus in culture; conditions: ATCC 27853, 18 h, ASSAY_TEST Inhibition of Bacterial Growth, detection method Absorption (OD600), MEDIA CAMHB, plate type 384well, NBS, CORNING #3640
Description: Antibacterial activity against Pseudomonas aeruginosa ATCC 27853 (CO-ADD:GN_042); MIC in CAMBH media using NBS plates, by OD(600)

HEK293 = experiment: cells; assay type: functional, Homo sapiens, ATCC CRL1573; conditions: Homo sapiens, ATCC CRL1573, HEK293; ASSAY_TEST Inhibition of Cell Viability; detection method Resazurin; Fluorescence (ex560/em590); MEDIA DMEM with 10% FBS; plate type 384well; TC; CORNING #3712; time 18 hr; read-out: CC50
Staphylococcus aureus = experiment: microbe, parasite or virus in culture; conditions: ATCC 43300, 18 h, ASSAY_TEST Inhibition of Bacterial Growth, detection method Absorption (OD600), MEDIA CAMHB, plate type 384well, NBS, CORNING #3640
Description: Antibacterial activity against Staphylococcus aureus MRSA ATCC 43300 (CO-ADD:GP_020); MIC in CAMBH media, using NBS plates, by OD(600)

Pseudomonas aeruginosa [2] = experiment: Antibacterial activity against Pseudomonas aeruginosa PAO397 [PAO1 d(mexAB-oprM) d(mexCD-oprJ) d(mexEF-oprN) d(mexJKL) d(mexXY) d(opmH)] (CO-ADD:GN_211); MIC in CAMBH media using NBS plates, by OD(600); assay type: functional; conditions: ASSAY_TEST Inhibition of Bacterial Growth, detection method Absorption (OD600), MEDIA CAMHB, plate type 384well, CORNING #3640, time 18 hr
Escherichia coli = experiment: microbe, parasite or virus in culture; conditions: ATCC 25922, 18 h, ASSAY_TEST Inhibition of Bacterial Growth, detection method Absorption (OD600), MEDIA CAMHB, plate type 384well, NBS, CORNING #3640
Description: Antibacterial activity against Escherichia coli ATCC 25922 (CO-ADD:GN_001); MIC in CAMBH media using NBS plates, by OD(600)

Acinetobacter baumannii = experiment: microbe, parasite or virus in culture; conditions: ATCC 19606, 18 h, ASSAY_TEST Inhibition of Bacterial Growth, detection method Absorption (OD600), MEDIA CAMHB, plate type 384well, NBS, CORNING #3640
Description: Antibacterial activity against Acinetobacter baumannii ATCC 19606 (CO-ADD:GN_034); MIC in CAMBH media using NBS plates, by OD600

Klebsiella pneumoniae = experiment: microbe, parasite or virus in culture; conditions: ATCC 700603, 18 h, ASSAY_TEST Inhibition of Bacterial Growth, detection method Absorption (OD600), MEDIA CAMHB, plate type 384well, NBS, CORNING #3640
Description: Antibacterial activity against Klebsiella pneumoniae MDR ATCC 70063 (CO-ADD:GN_003); MIC in CAMBH media using NBS plates, by OD(600)

Candida albicans = experiment: microbe, parasite or virus in culture; conditions: ATCC 90028, ASSAY_TEST Inhibition of Fungal Growth, detection method Absorption (OD530), plate type 384well, NBS, CORNING #3640
Description: Antifungal activity against Candida albicans ATCC 90028 (CO-ADD:FG_001); MIC in YNB media using NBS plates, by OD630

Description for Cryptococcus neoformans: Antifungal activity against Cryptococcus neoformans H99 ATCC 208821 (CO-ADD:FG_002); MIC in YNB media using NBS plates, by Resazurin OD(600-570)

Row | SMILES | MIC (Pseudomonas aeruginosa [1]) [µM] | MIC (Staphylococcus aureus) [µM] | MIC (Pseudomonas aeruginosa [2]) [µM] | MIC (Escherichia coli) [µM] | MIC (Cryptococcus neoformans) [µM] | MIC (Acinetobacter baumannii) [µM] | MIC (Klebsiella pneumoniae) [µM] | MIC (Candida albicans) [µM] | CC50 (HEK293) [µM]
1 | CC(C)c1cc2c(cc1S(=O)(=O)O)[C@@]1(C)CCC[C@@](C)(C(=O)O)[C@@H]1CC2 [ECABET] | > 20 | > 20 | > 20 | > 20 | > 20 | > 20 | > 20 | > 20 | > 20
2 | CCCCCc1ccc(C(=O)NCCn2cc(CCCCCc3c[nH]c(N)n3)nn2)cc1 | > 20 | > 20 | > 20 | > 20 | > 20 | > 20 | > 20 | > 20 | > 20
3 | CC(C)(C)c1cc(CCC(=O)N2CCC2)cc(C(C)(C)C)c1O | > 20 | > 20 | > 20 | > 20 | > 20 | > 20 | > 20 | > 20 | > 20
4 | COc1ccccc1CN[C@H]1C2CCN(CC2)[C@H]1C(c1ccccc1)c1ccccc1 [CP-96345] | > 20 | > 20 | > 20 | > 20 | > 20 | > 20 | > 20 | > 20 | > 20
5 | CNc1nc(=O)[nH]cc1F | > 20 | > 20 | > 20 | > 20 | > 20 | > 20 | > 20 | > 20 | > 20
6 | [N-]=[N+]=N[C@H]1C[C@H](n2ccc(=O)[nH]c2=O)O[C@@H]1CO [NAVURIDINE] | > 20 | > 20 | > 20 | > 20 | > 20 | > 20 | > 20 | > 20 | > 20
7 | CCC[C@H](NC(=O)[C@@H]1[C@H]2CCC[C@H]2CN1C(=O)[C@@H](NC(=O)[C@@H](NC(=O)c1cnccn1)C1CCCCC1)C(C)(C)C)C(=O)C(=O)NC1CC1 | > 20 | > 20 | > 20 | > 20 | > 20 | > 20 | > 20 | > 20 | > 20
8 | O=[N+]([O-])/C(Br)=C/c1ccc(Br)o1 | > 20 | > 20 | > 20 | > 20 | 20 (≈ 5.94 µg/mL) | > 20 | > 20 | 20 (≈ 5.94 µg/mL) | > 20
9 | NC(=O)c1ccc(I)c([N+](=O)[O-])c1 [INIPARIB] | > 20 | > 20 | > 20 | > 20 | > 20 | > 20 | > 20 | > 20 | > 20
10 | OCCCCn1cnc2c(O)nc(NCc3ccc(Cl)c(Cl)c3)nc21 | > 20 | > 20 | > 20 | > 20 | > 20 | > 20 | > 20 | > 20 | > 20
11 | Cc1ccc(S(=O)(=O)Nc2cccc3cccnc23)cc1 | > 20 | > 20 | > 20 | > 20 | > 20 | > 20 | > 20 | > 20 | 4.05
12 | CC(C)(C)NC(=O)N[C@H](C(=O)N1C[C@H]2[C@@H]([C@H]1C(=O)NC(CC1CCC1)C(=O)C(N)=O)C2(C)C)C(C)(C)C (stereo partly specified) [BOCEPREVIR] | > 20 | > 20 | > 20 | > 20 | > 20 | > 20 | > 20 | > 20 | > 20
13 | COc1c(F)c(F)cc2c(=O)c(C(=O)O)cn(C3CC3)c12 | 10 (≈ 2.95 µg/mL) | 20 (≈ 5.9 µg/mL) | 5 (≈ 1.48 µg/mL) | 2.5 (≈ 0.738 µg/mL) | > 20 | > 20 | > 20 | > 20 | > 20

Continued, in another order:

Row | MIC (Pseudomonas aeruginosa [1]) [µM] | MIC (Staphylococcus aureus) [µM] | MIC (Pseudomonas aeruginosa [2]) [µM] | MIC (Escherichia coli) [µM] | MIC (Cryptococcus neoformans) [µM] | MIC (Acinetobacter baumannii) [µM] | MIC (Klebsiella pneumoniae) [µM] | MIC (Candida albicans) [µM] | SMILES | CC50 (HEK293) [µM]
14 | > 20 | > 20 | > 20 | > 20 | > 20 | > 20 | > 20 | > 20 | C[C@H](NC(CC(=O)c1ccccc1C(F)(F)F)C(=O)O)c1ccccc1 (stereo partly specified) | > 20
15 | > 20 | > 20 | > 20 | > 20 | > 20 | > 20 | > 20 | > 20 | O=C(Nc1ccccc1)N(Cc1cc(Br)ccc1O)c1ccc(F)cc1 | > 20
16 | > 20 | > 20 | > 20 | > 20 | > 20 | > 20 | > 20 | > 20 | O=C(NC(=O)N1CCCc2ccccc21)c1ccc(Cl)cc1Cl | > 20
17 | > 20 | > 20 | > 20 | > 20 | > 20 | > 20 | > 20 | > 20 | CCc1cc(Nc2cc(=O)n(CCN3CCN(C(=O)c4ccccc4)CC3)c(=O)[nH]2)ccc1C | > 20
18 | > 20 | > 20 | > 20 | > 20 | > 20 | > 20 | > 20 | > 20 | CN(C)CCCNC(=O)c1ccc(-c2cc(O)c3ncccc3c2)cc1 | 16.6
19 | > 20 | > 20 | > 20 | > 20 | > 20 | > 20 | > 20 | > 20 | Cc1cccc(C)c1C(=O)Nc1nc(-c2ccccn2)cc2ccccc12 | 7.29
20 | > 20 | 20 (≈ 7.31 µg/mL) | > 20 | > 20 | > 20 | > 20 | > 20 | > 20 | CCC(C)NCC(O)Cn1c2ccc(Cl)cc2c2cc(Cl)ccc21 (stereo unspecified) | 6.84
21 | > 20 | 0.312 (≈ 0.123 µg/mL) | 2.5 (≈ 0.984 µg/mL) | > 20 | > 20 | > 20 | > 20 | > 20 | CCNC(=O)Nc1cc2c(-c3ccnc(C)c3)ccc(CNC(=O)OC)c2cn1 | > 20
22 | > 20 | > 20 | > 20 | > 20 | > 20 | > 20 | > 20 | > 20 | O=C(CSc1nnc(Br)n1-c1ccc(C2CC2)c2ccccc12)Nc1ccc(C(=O)O)cc1Cl | > 20
23 | 20 (≈ 8.97 µg/mL) | 0.625 (≈ 0.28 µg/mL) | ≤ 0.156 | 2.5 (≈ 1.12 µg/mL) | > 20 | 10 (≈ 4.49 µg/mL) | > 20 | > 20 | O=c1ccc2ncc(=O)n3c2n1CC3CN1CCC(NCc2cc3c(cn2)OCCC3)CC1 (stereo unspecified) | > 20
24 | > 20 | > 20 | > 20 | > 20 | > 20 | > 20 | > 20 | > 20 | O=C(O)c1ccc(-n2nc(-c3ccccc3O)nc2-c2ccccc2O)cc1 [DEFERASIROX] | > 20
